Data reported in patent publication US12448369B2 (Edgewise Therapeutics, Inc., priority 2023, dated 2025).

Assays:
[1] = tested on: Rabbit Psoas myofibrils (skeletal myosin ATPase); experiment: Myofibril ATPase assay, rabbit psoas (skeletal) myofibrils; type: biochemical; conditions: rabbit psoas myofibrils
Summary of the method: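 ATPase activity of Triton-washed myofibrils was measured by PK/LDH coupling, following NADH loss at 340 nm every 1.5–2 min for 75 min in PIPES/Ca/EGTA buffer at pH 7.0. Slopes, normalized to vehicle (100%), were fitted to a 4-parameter logistic model. Values are Y75 (25% inhibition) or Y125 (activators).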

[2] = tested on: Porcine atria myofibrils (atrial myosin ATPase); experiment: Myofibril ATPase assay, porcine atria myofibrils; type: biochemical; conditions: porcine atria myofibrils
Summary of the method: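 Porcine atrial myofibrils were tested in a PK/LDH-coupled system where ADP from myosin ATPase drives NADH oxidation. Absorbance at 340 nm was read every 1.5-2 min for 75 min and slopes were normalized to vehicle wells. A 4-parameter logistic fit gave Y75 (25% inhibition) or Y125 (activation) concentrations.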

[3] = molecular target: T1, Porcine ventricle myofibrils (ventricular myosin ATPase) (Sus scrofa, UniProt P79293); experiment: Myofibril ATPase assay, porcine ventricle myofibrils; type: biochemical, porcine (Yucatan minipigs); conditions: porcine ventricle myofibrils
T1 construct: Myofibrils from porcine cardiac muscle was isolated from the left ventricle of Yucatan minipigs; tissue Exemplar Genetics; host or cells: left ventricle of Yucatan minipigs, myofibrils prepared in house
Summary of the method: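 Myofibrils isolated from Yucatan minipig left ventricle; coupled PK/LDH NADH assay, pCa buffer pH 7.0, kinetic A340 reads over 75 min. Vehicle-normalized slopes fit 4PL; Y75/Y125 derived.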

[4] = ‡ Y125 value, not a Y75 value (125% activity relative to no compound)

T1 sequence (P79293 whole entry): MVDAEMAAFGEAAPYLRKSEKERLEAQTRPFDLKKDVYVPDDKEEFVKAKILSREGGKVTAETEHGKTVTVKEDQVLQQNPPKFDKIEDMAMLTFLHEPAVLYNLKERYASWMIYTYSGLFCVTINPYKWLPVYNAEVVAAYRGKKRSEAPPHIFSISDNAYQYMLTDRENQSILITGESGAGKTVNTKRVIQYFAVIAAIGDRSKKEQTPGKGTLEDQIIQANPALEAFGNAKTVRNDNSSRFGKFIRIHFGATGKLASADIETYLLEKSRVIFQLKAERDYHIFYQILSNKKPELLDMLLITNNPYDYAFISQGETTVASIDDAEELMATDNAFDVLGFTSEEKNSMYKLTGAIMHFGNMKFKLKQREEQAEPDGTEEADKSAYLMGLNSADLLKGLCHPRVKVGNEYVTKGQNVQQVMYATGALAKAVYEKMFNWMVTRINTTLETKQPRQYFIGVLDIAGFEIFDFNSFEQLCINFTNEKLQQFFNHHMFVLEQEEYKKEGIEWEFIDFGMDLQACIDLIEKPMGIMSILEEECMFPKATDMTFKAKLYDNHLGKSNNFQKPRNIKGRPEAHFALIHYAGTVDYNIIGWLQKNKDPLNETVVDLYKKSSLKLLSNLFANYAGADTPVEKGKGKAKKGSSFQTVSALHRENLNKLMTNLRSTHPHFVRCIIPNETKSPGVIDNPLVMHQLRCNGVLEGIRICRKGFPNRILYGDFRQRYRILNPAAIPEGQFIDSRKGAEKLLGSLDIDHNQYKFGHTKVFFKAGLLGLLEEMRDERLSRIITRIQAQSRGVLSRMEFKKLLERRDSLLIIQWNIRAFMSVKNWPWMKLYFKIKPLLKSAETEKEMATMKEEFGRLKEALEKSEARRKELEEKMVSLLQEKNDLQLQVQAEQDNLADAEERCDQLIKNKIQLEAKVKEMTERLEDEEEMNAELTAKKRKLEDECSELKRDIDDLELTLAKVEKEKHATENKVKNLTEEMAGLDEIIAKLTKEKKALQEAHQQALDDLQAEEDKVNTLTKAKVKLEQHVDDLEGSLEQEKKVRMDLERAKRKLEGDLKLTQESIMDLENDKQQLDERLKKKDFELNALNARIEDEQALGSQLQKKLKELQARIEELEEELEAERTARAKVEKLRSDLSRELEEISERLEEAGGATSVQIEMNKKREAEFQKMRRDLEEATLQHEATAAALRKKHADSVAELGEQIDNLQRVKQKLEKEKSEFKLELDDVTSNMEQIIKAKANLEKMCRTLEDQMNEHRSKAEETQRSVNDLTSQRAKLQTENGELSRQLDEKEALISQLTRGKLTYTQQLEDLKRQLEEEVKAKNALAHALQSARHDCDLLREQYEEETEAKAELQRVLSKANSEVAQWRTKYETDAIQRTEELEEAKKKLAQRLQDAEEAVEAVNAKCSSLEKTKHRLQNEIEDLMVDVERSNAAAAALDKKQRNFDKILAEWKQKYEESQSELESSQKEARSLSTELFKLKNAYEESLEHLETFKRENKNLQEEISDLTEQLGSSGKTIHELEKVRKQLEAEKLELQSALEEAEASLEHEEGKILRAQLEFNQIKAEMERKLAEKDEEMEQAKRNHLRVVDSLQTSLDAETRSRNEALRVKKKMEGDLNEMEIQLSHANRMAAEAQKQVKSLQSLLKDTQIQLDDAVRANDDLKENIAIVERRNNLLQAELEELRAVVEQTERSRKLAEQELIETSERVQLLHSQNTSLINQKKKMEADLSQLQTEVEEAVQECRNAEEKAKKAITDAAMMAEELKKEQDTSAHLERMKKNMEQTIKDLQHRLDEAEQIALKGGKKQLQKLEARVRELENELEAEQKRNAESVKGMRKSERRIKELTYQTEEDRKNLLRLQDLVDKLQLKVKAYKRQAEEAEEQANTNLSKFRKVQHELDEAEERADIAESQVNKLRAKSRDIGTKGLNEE

Skeletal EC25 ([1]; Y75 value (no ‡ mark)) [µM]	Atrial EC25 ([2]; Y75 value (no ‡ mark)) [µM]	Ventricular EC25 ([3]; Y75 value (no ‡ mark)) [µM]	Skeletal EC25 [1, 4]	Ventricular EC25 [3, 4]	Atrial EC25 [2, 4]	Compound
0.67	0.79	100.00				Cc1c(C(F)(F)C(=O)N[C@H]2CCc3cc(C#N)cnc32)c(=O)[nH]c2ccc(F)cc12 (single isomer, unassigned) [compound 2516]
0.52	0.31	1.19				Cc1c(F)ccc2[nH]c(=O)c(C(F)(F)C(=O)N[C@H](C)c3ncc(C#N)cc3F)c(C#N)c12 (single isomer, unassigned) [compound 2519]
0.07	0.14	0.21				Cc1c(F)ccc2[nH]c(=O)c(C(F)(F)C(=O)N[C@@H](C)c3ncc(C#N)cc3F)c(C#N)c12 (single isomer, unassigned) [compound 2520]
0.41	0.32	1.83				Cc1c(C(F)(F)C(=O)N[C@H](C)c2ncc(C#N)cn2)c(=O)[nH]c2ccc(F)c(C#N)c12 (single isomer, unassigned) [compound 2521]
0.14	0.32	0.72				Cc1c(C(F)(F)C(=O)N[C@@H](C)c2ncc(C#N)cn2)c(=O)[nH]c2ccc(F)c(C#N)c12 (single isomer, unassigned) [compound 2522]
	0.19	0.74	100.00‡ μM			Cc1c(C2(C(=O)N[C@H](C)c3ncc(C#N)cc3F)CC2)c(=O)[nH]c2ccc(F)c(C#N)c12 (single isomer, unassigned) [compound 2523]
0.13	0.16	0.31				Cc1c(C2(C(=O)N[C@@H](C)c3ncc(C#N)cc3F)CC2)c(=O)[nH]c2ccc(F)c(C#N)c12 (single isomer, unassigned) [compound 2524]
	4.73	100.00	100.00‡ μM			Cc1c(C(F)(F)C(=O)N[C@H](C)c2nccc(C#N)n2)c(=O)[nH]c2ccc(F)cc12 (single isomer, unassigned) [compound 2527]
	4.45	100.00	93.23‡ μM			Cc1c(C(F)(F)C(=O)N[C@@H](C)c2nccc(C#N)n2)c(=O)[nH]c2ccc(F)cc12 (single isomer, unassigned) [compound 2528]
2.08	1.29	15.11				Cc1c(C2(C(=O)N[C@H](C)c3ncc(C#N)cn3)CC2)c(=O)[nH]c2ccc(F)c(C#N)c12 (single isomer, unassigned) [compound 2531]
1.49	0.89	45.96				Cc1c(C2(C(=O)N[C@@H](C)c3ncc(C#N)cn3)CC2)c(=O)[nH]c2ccc(F)c(C#N)c12 (single isomer, unassigned) [compound 2532]
0.06	0.13	0.13				Cc1c(C(F)(F)C(=O)N[C@@H](C)c2ncc(C#N)cc2F)c(=O)[nH]c2cccc(F)c12 (single isomer, unassigned) [compound 2533]
	15.93	100.00	37.90‡ μM			C[C@@H](NC(=O)C1(c2cc3cc(F)ccc3[nH]c2=O)CC1)c1cccc(C#N)n1 (single isomer, unassigned) [compound 2534]
	100.00		51.07‡ μM	85.38‡ μM		C[C@H](NC(=O)C1(c2cc3cc(F)ccc3[nH]c2=O)CC1)c1cccc(C#N)n1 (single isomer, unassigned) [compound 2535]
	30.59	100.00	77.37‡ μM			C[C@@H](NC(=O)C1(c2cc3cc(F)ccc3[nH]c2=O)CC1)c1cc(C#N)ccn1 (single isomer, unassigned) [compound 2536]
	100.00		100.00‡ μM	100.00‡ μM		C[C@H](NC(=O)C1(c2cc3cc(F)ccc3[nH]c2=O)CC1)c1cc(C#N)ccn1 (single isomer, unassigned) [compound 2537]
0.11	0.17	0.18				Cc1c(C(F)(F)C(=O)N[C@H](C)c2ncc(C#N)cc2F)c(=O)[nH]c2cccc(F)c12 (single isomer, unassigned) [compound 2538]

Skeletal EC25 ([1]; Y75 value (no ‡ mark)) [µM]	Atrial EC25 ([2]; Y75 value (no ‡ mark)) [µM]	Ventricular EC25 ([3]; Y75 value (no ‡ mark)) [µM]	Skeletal EC25 [1, 4]	Ventricular EC25 [3, 4]	Atrial EC25 [2, 4]	Compound
100.00	2.76	100.00				Cc1c(C2(C(=O)N[C@H](C)c3cc(C#N)ccn3)CC2)c(=O)[nH]c2ccc(F)c(F)c12 (single isomer, unassigned) [compound 2539]
0.96		100.00			100.00‡ μM	Cc1c(C2(C(=O)N[C@@H](C)c3cc(C#N)ccn3)CC2)c(=O)[nH]c2ccc(F)c(F)c12 (single isomer, unassigned) [compound 2540]
0.85	0.33	0.70				Cc1c(C2(C(=O)N[C@H](C)c3ncc(C#N)cc3F)CC2)c(=O)[nH]c2cccc(C#N)c12 (single isomer, unassigned) [compound 2541]
0.32	0.24	0.40				Cc1c(C2(C(=O)N[C@@H](C)c3ncc(C#N)cc3F)CC2)c(=O)[nH]c2cccc(C#N)c12 (single isomer, unassigned) [compound 2542]
0.83	0.73	4.00				Cc1c(C2(C(=O)N[C@H](C)c3ncc(C#N)cn3)CC2)c(=O)[nH]c2cccc(C#N)c12 (single isomer, unassigned) [compound 2543]
2.27	4.48	18.26				Cc1c(C2(C(=O)N[C@@H](C)c3ncc(C#N)cn3)CC2)c(=O)[nH]c2cccc(C#N)c12 (single isomer, unassigned) [compound 2544]
0.13	7.98	1.22				C[C@@H](NC(=O)C(F)(F)c1cc2c(F)c(F)ccc2[nH]c1=O)c1ncc(C#N)cn1 (single isomer, unassigned) [compound 2545]
0.19	0.20	1.23				C[C@H](NC(=O)C(F)(F)c1cc2c(F)c(F)ccc2[nH]c1=O)c1ncc(C#N)cn1 (single isomer, unassigned) [compound 2546]
0.91				58.38‡ μM	100.00‡ μM	Cc1c(C2(C(=O)N[C@H](C)c3cccc(C#N)n3)CC2)c(=O)[nH]c2ccc(F)c(F)c12 (single isomer, unassigned) [compound 2547]
	45.39	100.00	45.96‡ μM			Cc1c(C2(C(=O)N[C@@H](C)c3cccc(C#N)n3)CC2)c(=O)[nH]c2ccc(F)c(F)c12 (single isomer, unassigned) [compound 2548]
7.56	0.97	100.00				C[C@@H](NC(=O)C1(c2cc3c(F)c(F)ccc3[nH]c2=O)CC1)c1ncc(C#N)cn1 (single isomer, unassigned) [compound 2549]
1.22	1.39	77.93				C[C@H](NC(=O)C1(c2cc3c(F)c(F)ccc3[nH]c2=O)CC1)c1ncc(C#N)cn1 (single isomer, unassigned) [compound 2550]
0.79	0.51	34.88				Cc1c(C(F)(F)C(=O)N[C@@H]2COc3cc(C#N)cc(F)c32)c(=O)[nH]c2ccc(F)cc12 (single isomer, unassigned) [compound 2553]
0.80	3.65	6.70				Cc1c(C(F)(F)C(=O)N[C@H](C)c2ccc(C#N)nn2)c(=O)[nH]c2ccc(F)cc12 (single isomer, unassigned) [compound 2555]
5.17	6.56	16.01				Cc1c(C(F)(F)C(=O)N[C@@H](C)c2ccc(C#N)nn2)c(=O)[nH]c2ccc(F)cc12 (single isomer, unassigned) [compound 2556]
6.04	3.66	7.27				C[C@@H](NC(=O)C(F)(F)c1cc2c(F)c(F)ccc2[nH]c1=O)c1cc(C#N)ccn1 (single isomer, unassigned) [compound 2557]
100.00	31.66	81.97				C[C@H](NC(=O)C(F)(F)c1cc2c(F)c(F)ccc2[nH]c1=O)c1cc(C#N)ccn1 (single isomer, unassigned) [compound 2558]
